Test results as given in patent US10660967B2, “Curcumin conjugates and methods of use thereof” (priority 2016, dated 2020).
Where two headings read alike, the source gives them in different places.

Legend:
[1] = test system: PHA-stimulated splenocytes; test: Proliferative response of PHA-stimulated splenocytes (MTT assay); assay type: cell-based; conditions: PHA 5 μg/ml, 72 hr; compounds at 5 μM (method says 10 μM); ratio of O.D. versus vehicle control
Summary of the method: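 Readout was MTT absorbance (570 nm, reference 690 nm) after 72 h culture at 37° C. Splenocytes at 1×10^6 cells/well received test compound (10 μM final) alone or plus PHA 5 μg/ml as T-cell mitogen. Values are OD ratios of compound over vehicle control (stimulation index).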

[2] = test system: lipopolysaccharide-stimulated peritoneal macrophages; test: Production of nitric oxide by lipopolysaccharide-stimulated peritoneal macrophages (Greiss reagent); assay type: cell-based; set-up: Potency (%): % inhibition of nitric oxide production relative to lipopolysaccharide-stimulated macrophages: concentration or dose not given beside the values; conditions: LPS-stimulated peritoneal macrophages; for Nitric oxide (nitrite) concentration, μM (average ± SD): 24 h, nitrite by Greiss reagent
Summary of the method: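 NO output was quantified as accumulated nitrite, reacting supernatant with Greiss reagent (sulfanilamide/α-naphthylamine) and reading at 532 nm. Beforehand, cells had been incubated 24 h at 37° C. in nitrite-free, 0.1% BSA medium with 0.5–10 ng/ml LPS, with or without catecholamines at […].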

[3] = test system: Salmonella typhi ATCC19430; test: Antimicrobial MIC, agar dilution; assay type: cell-based; conditions: Salmonella enterica, read-out: Minimum inhibitory concentration (MIC)
[4] = test system: HCT116 (colon) carcinoma cell line; test: Anti-tumor properties, MTT; assay type: cell-based; conditions: Homo sapiens, HCT-116; read-out: IC50 (μM) HCT116 (colon)
Summary of the method: (§1)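 Cells seeded at 10×10^3 per well for 24 h, then exposed to compound in serum-free medium (final up to 100 μM, 0.5% DMSO vehicle) for 72 h in triplicate. Viability by MTT reduction (4 h, SDS solubilised), absorbance 595 nm/ref 620 nm; IC50 from survival curves.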

[5] = test system: HepG2 (hepatocellular) carcinoma cell line; test: Anti-tumor properties, MTT; assay type: cell-based; conditions: Homo sapiens, HepG2; read-out: IC50 (μM) HepG2 (liver)
Summary of the method: as §1

[6] = test system: MCF7 (breast) carcinoma cell line; test: Anti-tumor properties, MTT; assay type: cell-based; conditions: Homo sapiens, MCF7; read-out: IC50 (μM) MCF7 (breast)
Summary of the method: as §1

[7] = test system: A-549 (lung) carcinoma cell line; test: Anti-tumor properties, MTT; assay type: cell-based; conditions: Homo sapiens, A549
[8] = test system: PC3 (prostate) carcinoma cell line; test: Anti-tumor properties, MTT; assay type: cell-based; conditions: Homo sapiens
[9] = test system: Staphylococcus aureus ATCC25923; test: Antimicrobial MIC, agar dilution
[10] = test system: Streptococcus pyogenes ATCC19615; test: Antimicrobial MIC, agar dilution
[11] = test system: Pseudomonas aeruginosa ATCC27853; test: Antimicrobial MIC, agar dilution
[12] = test system: Candida albicans (local isolate); test: Antimicrobial MIC, agar dilution; conditions: Candida albicans, read-out: Minimum inhibitory concentration (MIC)
[13] = ATCC25923, 18 h, read-out: Minimum inhibitory concentration (MIC)
[14] = ATCC25923, read-out: Minimum inhibitory concentration (MIC)
[15] = ATCC19615, 18 h, read-out: Minimum inhibitory concentration (MIC)
[16] = ATCC19615, read-out: Minimum inhibitory concentration (MIC)
[17] = ATCC27853, 18 h, read-out: Minimum inhibitory concentration (MIC)
[18] = ATCC27853, read-out: Minimum inhibitory concentration (MIC)

Compound | Stimulation Index (average ± SD) [1] | Potency (%): % inhibition of nitric oxide production relative to lipopolysaccharide-stimulated macrophages [2] | Nitric oxide (nitrite) concentration, μM (average ± SD) [2] | MIC ([3]; 18 h) | MIC [3] | IC50 [4] | IC50 [5] | IC50 [6] | IC50 [7] | IC50 [8] | MIC [9, 13] | MIC [9, 14] | MIC [10, 15] | MIC [10, 16] | MIC [11, 17] | MIC [11, 18] | MIC ([12]; 18 h) | MIC [12]
COc1cc(/C=C/C(=O)CC(=O)/C=C/c2ccc(OC(=O)[C@@H](NC(=O)OC(C)(C)C)C(C)C)c(OC)c2)ccc1OC(=O)[C@@H](NC(=O)OC(C)(C)C)C(C)C [Boc-L-Val-Cur, ((1E,6E)-3,5-dioxohepta-1,6-diene-1,7-diyl)bis(2-methoxy-4,1-phenylene) (2S,2′S)-bis(2-((tert-butoxycarbonyl)amino)-3-methylbutanoate)] | 1.84 ± 0.06 | 29.35% | 19.29 ± 0.39 µM | 0.25 µg/mL | 0.326 µM | > 100 µM | > 100 µM | ≥ 100 µM | > 100 µM | > 100 µM | 0.25 µg/mL | 0.326 µM | 2 µg/mL | 2.61 µM | 2 µg/mL | 2.61 µM | 1 µg/mL | 1.3 µM
COc1cc(/C=C/C(=O)CC(=O)/C=C/c2ccc(OC(=O)CCNC(=O)OC(C)(C)C)c(OC)c2)ccc1OC(=O)CCNC(=O)OC(C)(C)C [Boc-β-Ala-Cur, ((1E,6E)-3,5-dioxohepta-1,6-diene-1,7-diyl)bis(2-methoxy-4,1-phenylene) bis(3-((tert-butoxycarbonyl)amino)propanoate)] | 1.70 ± 0.24 | 32.81% | 18.35 ± 1.61 µM | 0.5 µg/mL | 0.703 µM | > 100 µM | > 100 µM | 13.2 µM | > 100 µM | > 100 µM | 0.25 µg/mL | 0.352 µM | 0.25 µg/mL | 0.352 µM | 0.25 µg/mL | 0.352 µM | 0.5 µg/mL | 0.703 µM
COc1cc(/C=C/C(=O)CC(=O)/C=C/c2ccc(OC(=O)[C@H](C)N)c(OC)c2)ccc1OC(=O)[C@H](C)N.Cl.Cl [HCl-L-Ala-Cur, (2S,2′S)-1,1′-((((1E,6E)-3,5-dioxohepta-1,6-diene-1,7-diyl)bis(2-methoxy-4,1-phenylene))bis(oxy))bis(1-oxopropan-2-aminium) chloride] | 1.14 ± 0.18 | 46.24% | 14.68 ± 1.20 µM | 0.5 µg/mL | 0.857 µM | 38.8 µM | 33.8 µM | 10.7 µM | 21.7 µM | 31.5 µM | 0.5 µg/mL | 0.857 µM | 0.5 µg/mL | 0.857 µM | 0.25 µg/mL | 0.428 µM | 0.5 µg/mL | 0.857 µM
COc1cc(/C=C/C(=O)CC(=O)/C=C/c2ccc(OC(=O)[C@@H](N)CCC(N)=O)c(OC)c2)ccc1OC(=O)[C@@H](N)CCC(N)=O.Cl.Cl [HCl-L-Gln-Cur, (2S,2′S)-1,1′-((((1E,6E)-3,5-dioxohepta-1,6-diene-1,7-diyl)bis(2-methoxy-4,1-phenylene))bis(oxy))bis(5-amino-1,5-dioxopentan-2-aminium) chloride] | 2.22 ± 0.20 | 20.35% | 21.75 ± 1.31 µM | 0.125 µg/mL | 0.179 µM | 41 µM | 39.1 µM | 9.15 µM | 21.1 µM | 34.4 µM | 0.25 µg/mL | 0.358 µM | 0.5 µg/mL | 0.717 µM | 0.5 µg/mL | 0.717 µM | 0.125 µg/mL | 0.179 µM
CC[C@H](C)[C@H](N)C(=O)Oc1ccc(/C=C/C(=O)CC(=O)/C=C/c2ccc(OC(=O)[C@@H](N)[C@@H](C)CC)c(OC)c2)cc1OC.Cl.Cl [HCl-L-Ile-Cur, (2S,2′S,3S,3′S)-1,1′-((((1E,6E)-3,5-dioxohepta-1,6-diene-1,7-diyl)bis(2-methoxy-4,1-phenylene))bis(oxy))bis(3-methyl-1-oxopentan-2-aminium) chloride] | 1.59 ± 0.17 | 35.45% | 17.63 ± 1.14 µM | 0.125 µg/mL | 0.187 µM | 36.7 µM | 38.9 µM | 10.2 µM | 20.9 µM | 34.4 µM | 0.25 µg/mL | 0.374 µM | 0.5 µg/mL | 0.749 µM | 0.25 µg/mL | 0.374 µM | 0.125 µg/mL | 0.187 µM
COc1cc(/C=C/C(=O)CC(=O)/C=C/c2ccc(OC(=O)[C@@H](N)Cc3ccccc3)c(OC)c2)ccc1OC(=O)[C@@H](N)Cc1ccccc1.Cl.Cl [HCl-L-Phe-Cur, (2S,2′S)-1,1′-((((1E,6E)-3,5-dioxohepta-1,6-diene-1,7-diyl)bis(2-methoxy-4,1-phenylene))bis(oxy))bis(1-oxo-3-phenylpropan-2-aminium) chloride] | 1.41 ± 0.31 | 39.74% | 16.46 ± 2.05 µM | 0.125 µg/mL | 0.17 µM | 65.6 µM | 56.2 µM | 11.5 µM | 33.5 µM | 74.4 µM | 0.25 µg/mL | 0.34 µM | 0.5 µg/mL | 0.68 µM | 0.5 µg/mL | 0.68 µM | 0.5 µg/mL | 0.68 µM
COc1cc(/C=C/C(=O)CC(=O)/C=C/c2ccc(OC(=O)[C@@H](N)C(C)C)c(OC)c2)ccc1OC(=O)[C@@H](N)C(C)C.Cl.Cl [HCl-L-Val-Cur, (2S,2′S)-1,1′-((((1E,6E)-3,5-dioxohepta-1,6-diene-1,7-diyl)bis(2-methoxy-4,1-phenylene))bis(oxy))bis(3-methyl-1-oxobutan-2-aminium) chloride] | 2.05 ± 0.15 | 24.37% | 20.65 ± 0.99 µM | 0.125 µg/mL | 0.195 µM | 66.5 µM | 39.1 µM | 10.4 µM | 20.4 µM | 34.6 µM | 0.25 µg/mL | 0.391 µM | 0.125 µg/mL | 0.195 µM | 0.25 µg/mL | 0.391 µM | 0.125 µg/mL | 0.195 µM
